Reference: patent US20240041042A1, “1-(PYRIDYL)-5-AZINYLPYRAZOLE DERIVATIVES, AND THEIR USE FOR CONTROL OF UNDESIRED PLANT GROWTH” (Bayer Aktiengesellschaft, priority 2020, published 2024)
Read-outs that look alike come from different tables or passages of the source.

What was measured:
Assay type in all cases: in vivo
[1] = system: Alopecurus myosuroides (ALOMY); assay: Pre-emergence herbicidal action against ALOMY; details: scored visually after about 3 weeks, 100% = plants have died
Summary of the method: (§1)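 Pre-emergence soil-surface spray, WP/EC formulation, 0.5% additive, 600 l/ha water, rates of 320 g/ha or lower. Greenhouse, ~3 wk. Visual score, % of untreated control (100% = plants dead, 0% = like control).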

[2] = system: Amaranthus retroflexus (AMARE); assay: Pre-emergence herbicidal action against AMARE; details: visual scoring after about 3 weeks vs untreated controls
Summary of the method: as §1

Avena fatua (AVEFA) [3] = assay: Pre-emergence herbicidal action against AVEFA; details: 320 g/ha, visual scoring after about 3 weeks vs untreated controls
Summary of the method: as §1

[4] = system: Digitaria sanguinalis (DIGSA); assay: Pre-emergence herbicidal action against DIGSA
Description: Seeds of monocotyledonous and dicotyledonous weed plants and crop plants are placed in plastic or organic planting pots and covered with soil. The compounds of the invention, formulated in the form of wettable powders (WP) or as emulsion concentrates (EC), are then applied to the surface of the covering soil as aqueous suspension or emulsion with addition of 0.5% additive at a water application rate equivalent to 600 l/ha. After the treatment, the pots are placed in a greenhouse and kept under good growth conditions for the trial plants. After about 3 weeks, the effect of the preparations is scored visually in comparison with untreated controls as percentages. For example, 100% activity=the plants have died, 0% activity=like control plants.
Tables A1 to A13 below show the effects of selected compounds of the general formula (I) on various harmful plants and at an application rate corresponding to 320 g/ha or lower, which were obtained by the experimental procedure mentioned above. The appendices “a”, “b” and “c” give differentiation by dosage used with otherwise the same harmful plants tested.

[5] = system: Echinochloa crus-galli (ECHCG); assay: Pre-emergence herbicidal action against ECHCG; details: dosage 320 g/ha
Summary of the method: as §1

Lolium rigidum (LOLRI) = assay: Pre-emergence herbicidal action against LOLRI; details: dosage 320 g/ha
Summary of the method: as §1

[6] = system: Matricaria inodora (MATIN); assay: Pre-emergence herbicidal action against MATIN; details: dosage 320 g/ha
Summary of the method: as §1

[7] = system: Polygonum convolvulus (POLCO); assay: Pre-emergence herbicidal action against POLCO; details: dosage 320 g/ha
Summary of the method: as §1

Setaria viridis (SETVI) [8] = assay: Pre-emergence herbicidal action against SETVI
Summary of the method: as §1

[9] = system: Verconica persica (VERPE); assay: Pre-emergence herbicidal action against VERPE; details: dosage 320 g/ha
Summary of the method: as §1

Viola tricolor (VIOTR) = assay: Pre-emergence herbicidal action against VIOTR
Summary of the method: as §1

[10] = system: Alopecurus myosuroides (ALOMY); assay: Post-emergence herbicidal action against ALOMY; details: 80 g/ha, visual rating about 3 weeks after treatment vs untreated controls (100% = plants have died, 0% = like control plants)
Summary of the method: (§2)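 Rates were 320 g/ha or below, applied as aqueous WP/EC spray with 0.5% additive (600 l/ha) onto one-leaf-stage plants. About 3 weeks later in the greenhouse, damage was scored visually against untreated plants on a 0–100% scale, where 100% means plants died.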

Avena fatua (AVEFA) [11] = assay: Post-emergence herbicidal action against AVEFA; details: 80 g/ha, visual rating about 3 weeks after treatment
Summary of the method: as §2

[12] = system: Digitaria sanguinalis (DIGSA); assay: Post-emergence herbicidal action against DIGSA; details: 80 g/ha, visual rating about 3 weeks after treatment
Summary of the method: as §2

[13] = system: Echinochloa crus-galli (ECHCG); assay: Post-emergence herbicidal action against ECHCG; details: dosage 80 g/ha
Summary of the method: as §2

[14] = system: Matricaria inodora (MATIN); assay: Post-emergence herbicidal action against MATIN; details: dosage 80 g/ha
Summary of the method: as §2

Setaria viridis (SETVI) [15] = assay: Post-emergence herbicidal action against SETVI; details: dosage 80 g/ha
Summary of the method: as §2

[16] = system: Verconica persica (VERPE); assay: Post-emergence herbicidal action against VERPE; details: dosage 80 g/ha
Summary of the method: as §2

Oryza sativa (ORYSA) = details: crop plant compatibility
Summary of the method: (§3)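 One-leaf-stage crops (2–3 wk post-sowing, sandy loam, greenhouse) sprayed on green parts; 0.5% additive, 600 l/ha water. Rated by eye ~3 wk later, % vs untreated; suffixes a/b/c mark different dosages.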

Zea mays (ZEAMX) = system: Zea mays (ZEAMX)
Summary of the method: as §3

- Post-emergence action against ORYSA in % (Oryza sativa (ORYSA); 20 g/ha, effect vs untreated controls): 10%
- Post-emergence action against ORYSA in % (Oryza sativa (ORYSA); 80 g/ha, effect in comparison to untreated controls): 20%
- Post-emergence action against ZEAMX in % (crop plant compatibility) (Zea mays (ZEAMX); 20 g/ha, ZEAMX, effect in comparison to untreated controls): 10%
- Post-emergence action against ZEAMX in % (Zea mays (ZEAMX); crop plant compatibility, 80 g/ha, effect vs untreated controls): 20%
SMILES: COCCOC(=O)COc1nn(-c2ncccc2F)c(-c2ccc(F)nc2)c1Br [Example I-29]
- Pre-emergence action against ALOMY ([1]; 80 g/ha): 90%
- Pre-emergence action against ALOMY ([1]; 320 g/ha): 100%
- Pre-emergence action against AMARE in % ([2]; 80 g/ha): 90%
- Pre-emergence action against AMARE in % ([2]; 320 g/ha): 100%
- Pre-emergence action against AVEFA in % (Avena fatua (AVEFA) [3]): 90%
- Pre-emergence action against DIGSA in % ([4]; 80 g/ha, visual scoring after about 3 weeks vs untreated controls): 100%
- Pre-emergence action against DIGSA in % ([4]; dosage 320 g/ha): 100%
- Pre-emergence action against ECHCG in % [5]: 100%
- Pre-emergence action against LOLRI in % (Lolium rigidum (LOLRI)): 100%
- Pre-emergence action against MATIN in % [6]: 100%
- Pre-emergence action against POLCO in % [7]: 90%
- Pre-emergence action against SETVI in % (Setaria viridis (SETVI) [8]; dosage 80 g/ha): 90%
- Pre-emergence action against SETVI in % (Setaria viridis (SETVI) [8]; dosage 320 g/ha): 100%
- Pre-emergence action against VERPE in % [9]: 90%
- Pre-emergence action against VIOTR in % (Viola tricolor (VIOTR); 320 g/ha, Viola tricolor): 100%
- Pre-emergence action against VIOTR in % (Viola tricolor (VIOTR); dosage 80 g/ha): 90%
- Post-emergence action against ALOMY in % [10]: 100%
- Post-emergence action against AVEFA in % (Avena fatua (AVEFA) [11]): 80%
- Post-emergence action against DIGSA in % [12]: 90%
- Post-emergence action against ECHCG in % [13]: 80%
- Post-emergence action against MATIN in % [14]: 90%
- Post-emergence action against SETVI in % (Setaria viridis (SETVI) [15]): 80%
- Post-emergence action against VERPE in % [16]: 80%
